Legend:
[1] = target: T1, N-type calcium channel α1B+SFVG (Homo sapiens, UniProt Q00975, INS1237SFVG); assay: Transient expression and recording from Xenopus oocytes, calcium channel modulation; assay type: cell-based; details: transient expression
T1 construct: expressed in transfected cells; host or cells: Xenopus oocytes
Method: Representative compounds of the formulae herein are screened for activity against […] in an assay essentially as described in J. Neurosci., Aug. 15, 2001, 21(16):5944-5951, W. Xu and D. Lipscombe, using transient expression and recording from Xenopus oocytes. The assay is performed using various calcium channels (e.g., N-type calcium channel α1B+SFVG) whereby the modulation of the calcium channel is measured for each compound.
The following IC50 data were obtained for compounds 1 and 2, following the above-referenced protocols (see Table 1).

[2] = target: N-type calcium channel α1B+SFVG (Homo sapiens, UniProt Q00975); assay: Calcium channel modulation in HEK298 cells; assay type: cell-based
Sequence of N-type calcium channel α1B+SFVG (Homo sapiens, UniProt Q00975) (Q00975 whole entry): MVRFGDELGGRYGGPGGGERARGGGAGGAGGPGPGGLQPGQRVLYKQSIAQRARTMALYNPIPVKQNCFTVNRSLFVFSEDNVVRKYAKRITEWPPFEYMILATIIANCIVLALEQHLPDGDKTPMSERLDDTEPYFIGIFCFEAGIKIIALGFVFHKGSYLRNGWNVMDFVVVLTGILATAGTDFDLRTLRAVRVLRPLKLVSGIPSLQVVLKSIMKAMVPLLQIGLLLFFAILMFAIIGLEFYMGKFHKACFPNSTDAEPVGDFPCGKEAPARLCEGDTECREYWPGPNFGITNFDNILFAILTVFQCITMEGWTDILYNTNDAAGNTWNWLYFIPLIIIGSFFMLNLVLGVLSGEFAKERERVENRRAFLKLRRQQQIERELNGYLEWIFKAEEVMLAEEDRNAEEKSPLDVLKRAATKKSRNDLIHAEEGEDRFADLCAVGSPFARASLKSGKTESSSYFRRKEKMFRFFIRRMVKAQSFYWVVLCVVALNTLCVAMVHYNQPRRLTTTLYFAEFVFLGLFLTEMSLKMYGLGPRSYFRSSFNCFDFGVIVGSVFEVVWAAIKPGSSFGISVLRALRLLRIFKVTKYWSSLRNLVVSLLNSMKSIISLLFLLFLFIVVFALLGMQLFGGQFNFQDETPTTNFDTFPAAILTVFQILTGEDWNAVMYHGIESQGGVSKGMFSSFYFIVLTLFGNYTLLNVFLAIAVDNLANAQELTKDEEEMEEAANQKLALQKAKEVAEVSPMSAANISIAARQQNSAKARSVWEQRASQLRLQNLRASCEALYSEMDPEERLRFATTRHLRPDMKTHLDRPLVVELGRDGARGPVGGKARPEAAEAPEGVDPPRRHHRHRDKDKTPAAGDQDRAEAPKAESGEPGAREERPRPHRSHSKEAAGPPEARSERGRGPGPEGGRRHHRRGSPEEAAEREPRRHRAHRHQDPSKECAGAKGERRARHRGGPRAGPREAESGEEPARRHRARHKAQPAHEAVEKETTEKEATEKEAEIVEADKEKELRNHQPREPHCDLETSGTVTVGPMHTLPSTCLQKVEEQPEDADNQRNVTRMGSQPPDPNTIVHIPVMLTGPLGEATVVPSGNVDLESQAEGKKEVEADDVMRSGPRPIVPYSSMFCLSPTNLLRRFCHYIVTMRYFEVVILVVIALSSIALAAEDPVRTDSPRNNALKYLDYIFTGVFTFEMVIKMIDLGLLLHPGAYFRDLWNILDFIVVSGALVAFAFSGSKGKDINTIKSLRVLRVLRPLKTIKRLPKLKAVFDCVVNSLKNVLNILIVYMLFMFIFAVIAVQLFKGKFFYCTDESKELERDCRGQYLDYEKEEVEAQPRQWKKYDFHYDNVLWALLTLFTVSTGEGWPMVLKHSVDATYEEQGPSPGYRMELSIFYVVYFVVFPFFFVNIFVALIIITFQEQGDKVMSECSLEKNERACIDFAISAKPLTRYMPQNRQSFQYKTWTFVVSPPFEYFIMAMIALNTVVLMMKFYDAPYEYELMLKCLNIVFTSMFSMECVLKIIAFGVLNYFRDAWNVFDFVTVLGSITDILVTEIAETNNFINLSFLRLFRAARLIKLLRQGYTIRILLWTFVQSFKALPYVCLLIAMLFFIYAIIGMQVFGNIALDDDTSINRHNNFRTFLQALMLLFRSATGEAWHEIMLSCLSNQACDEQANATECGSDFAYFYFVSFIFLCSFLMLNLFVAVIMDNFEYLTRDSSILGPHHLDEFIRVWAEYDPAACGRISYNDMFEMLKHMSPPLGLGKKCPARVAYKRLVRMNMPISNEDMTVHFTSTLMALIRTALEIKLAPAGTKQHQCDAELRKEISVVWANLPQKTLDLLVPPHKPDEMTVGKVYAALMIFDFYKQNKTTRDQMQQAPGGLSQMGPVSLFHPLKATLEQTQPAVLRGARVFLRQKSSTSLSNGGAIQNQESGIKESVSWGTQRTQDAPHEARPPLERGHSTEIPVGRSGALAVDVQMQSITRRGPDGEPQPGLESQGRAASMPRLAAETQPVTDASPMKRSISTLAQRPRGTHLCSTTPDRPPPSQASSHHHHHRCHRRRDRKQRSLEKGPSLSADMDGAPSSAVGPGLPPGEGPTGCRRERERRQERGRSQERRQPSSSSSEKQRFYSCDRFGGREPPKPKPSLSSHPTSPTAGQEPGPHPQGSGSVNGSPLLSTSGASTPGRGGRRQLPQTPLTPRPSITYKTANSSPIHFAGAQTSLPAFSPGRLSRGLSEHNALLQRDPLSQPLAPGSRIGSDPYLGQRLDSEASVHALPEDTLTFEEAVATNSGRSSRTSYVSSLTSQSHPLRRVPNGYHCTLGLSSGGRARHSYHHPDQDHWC

T1 sequence (Q00975 with tags, fused parts or gaps INS1237SFVG): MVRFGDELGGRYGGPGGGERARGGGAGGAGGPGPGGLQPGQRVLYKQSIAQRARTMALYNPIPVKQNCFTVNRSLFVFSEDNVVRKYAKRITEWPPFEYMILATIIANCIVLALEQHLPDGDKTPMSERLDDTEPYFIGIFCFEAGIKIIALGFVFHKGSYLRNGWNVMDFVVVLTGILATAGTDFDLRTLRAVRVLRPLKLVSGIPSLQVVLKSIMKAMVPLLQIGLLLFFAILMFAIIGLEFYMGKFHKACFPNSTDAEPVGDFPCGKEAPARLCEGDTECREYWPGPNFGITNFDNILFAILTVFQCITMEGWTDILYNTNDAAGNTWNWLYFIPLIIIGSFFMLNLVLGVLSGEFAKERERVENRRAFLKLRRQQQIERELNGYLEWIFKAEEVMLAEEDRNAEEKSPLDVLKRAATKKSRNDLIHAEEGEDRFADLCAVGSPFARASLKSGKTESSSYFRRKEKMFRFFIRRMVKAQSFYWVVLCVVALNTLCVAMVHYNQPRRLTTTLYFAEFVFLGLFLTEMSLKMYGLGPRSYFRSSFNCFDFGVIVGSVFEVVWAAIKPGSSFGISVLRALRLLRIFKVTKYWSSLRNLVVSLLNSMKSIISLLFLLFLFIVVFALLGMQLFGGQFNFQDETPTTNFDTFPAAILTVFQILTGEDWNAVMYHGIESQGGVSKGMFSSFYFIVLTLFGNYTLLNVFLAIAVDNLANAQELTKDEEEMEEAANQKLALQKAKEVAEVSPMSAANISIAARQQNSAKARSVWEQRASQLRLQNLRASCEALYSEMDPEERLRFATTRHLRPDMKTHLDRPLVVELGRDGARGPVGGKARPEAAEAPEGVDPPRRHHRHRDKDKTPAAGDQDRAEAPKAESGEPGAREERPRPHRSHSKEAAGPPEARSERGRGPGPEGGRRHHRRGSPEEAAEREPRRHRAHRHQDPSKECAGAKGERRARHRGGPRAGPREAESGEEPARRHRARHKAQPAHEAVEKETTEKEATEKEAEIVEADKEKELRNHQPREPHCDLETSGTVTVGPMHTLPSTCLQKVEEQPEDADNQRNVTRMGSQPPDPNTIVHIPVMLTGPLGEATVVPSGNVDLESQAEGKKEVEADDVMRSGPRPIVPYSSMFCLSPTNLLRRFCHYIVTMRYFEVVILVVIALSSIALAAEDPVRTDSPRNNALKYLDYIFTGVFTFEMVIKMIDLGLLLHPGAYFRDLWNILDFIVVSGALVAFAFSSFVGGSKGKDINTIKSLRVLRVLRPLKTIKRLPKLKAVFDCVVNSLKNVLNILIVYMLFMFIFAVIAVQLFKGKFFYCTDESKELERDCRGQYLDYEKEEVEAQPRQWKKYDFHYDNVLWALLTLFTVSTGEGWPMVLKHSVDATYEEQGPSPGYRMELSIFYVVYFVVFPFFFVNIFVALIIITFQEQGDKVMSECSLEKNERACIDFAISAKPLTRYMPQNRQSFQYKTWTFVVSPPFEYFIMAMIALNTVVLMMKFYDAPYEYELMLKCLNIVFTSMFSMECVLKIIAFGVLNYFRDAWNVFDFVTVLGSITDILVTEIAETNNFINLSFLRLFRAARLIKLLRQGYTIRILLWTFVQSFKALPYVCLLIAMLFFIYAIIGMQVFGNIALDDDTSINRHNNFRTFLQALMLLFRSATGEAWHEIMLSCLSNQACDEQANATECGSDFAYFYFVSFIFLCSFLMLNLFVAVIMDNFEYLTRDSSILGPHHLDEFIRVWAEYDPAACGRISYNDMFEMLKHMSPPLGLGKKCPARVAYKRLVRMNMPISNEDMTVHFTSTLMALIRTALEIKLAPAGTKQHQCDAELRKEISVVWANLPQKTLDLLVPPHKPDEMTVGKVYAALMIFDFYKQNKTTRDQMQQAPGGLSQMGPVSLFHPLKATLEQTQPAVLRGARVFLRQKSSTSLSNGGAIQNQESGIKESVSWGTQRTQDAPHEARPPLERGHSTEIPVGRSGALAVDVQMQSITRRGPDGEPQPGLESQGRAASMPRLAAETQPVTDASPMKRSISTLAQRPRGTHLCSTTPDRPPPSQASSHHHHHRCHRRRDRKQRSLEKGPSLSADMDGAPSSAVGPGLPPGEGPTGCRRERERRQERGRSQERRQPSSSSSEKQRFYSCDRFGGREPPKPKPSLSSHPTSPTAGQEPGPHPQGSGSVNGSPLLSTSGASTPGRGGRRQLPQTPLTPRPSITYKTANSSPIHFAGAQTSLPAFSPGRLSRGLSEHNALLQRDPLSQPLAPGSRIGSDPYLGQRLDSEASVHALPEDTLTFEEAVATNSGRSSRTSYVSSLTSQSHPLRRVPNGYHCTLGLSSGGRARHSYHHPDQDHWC

Row | IC50 [1] | IC50 [2] | SMILES
1 | 7.13 µM | 0.19 µM | COc1cc(CN2CCN(CCCCCC(c3ccc(F)cc3)c3ccc(F)cc3)CC2)cc(OC)c1OC [Compound 1]
2 | 4.16 µM |  | O=C(CCCCC(c1ccccc1)c1ccccc1)N1CCC(NCc2ccccc2)CC1 [Compound 2]

— patent US20090012095A1, “HUMAN N-TYPE CALCIUM CHANNEL BLOCKERS” (Wyeth, priority 2002, published 2009)
